IC50 data for 23 compounds are collected here from patent US20260132132A1, “3A,4,5,6-TETRAHYDRO-1 H-PYRAZOLO[3,4-C]PYRIDIN-7(7AH)-ONE DERIVATIVES AS FACTOR XIIA INHIBITORS” (KALVISTA PHARMACEUTICALS LIMITED, priority 2022, published 2026).

The assay addresses T1, Human Factor XIIa (hFXIIa) (Homo sapiens, UniProt P00748).
T1 construct: purchased Enzyme Research Laboratories
T1 sequence (P00748 373-615 limits assumed): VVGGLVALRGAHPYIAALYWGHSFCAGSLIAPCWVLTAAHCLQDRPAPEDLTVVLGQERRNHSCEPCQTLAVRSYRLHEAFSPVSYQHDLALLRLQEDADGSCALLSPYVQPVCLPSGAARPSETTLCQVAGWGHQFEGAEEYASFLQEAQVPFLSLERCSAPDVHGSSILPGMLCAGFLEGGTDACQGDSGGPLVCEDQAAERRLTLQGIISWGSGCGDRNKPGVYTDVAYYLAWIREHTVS
T1 sequence (P00748 20-372 partner limits assumed): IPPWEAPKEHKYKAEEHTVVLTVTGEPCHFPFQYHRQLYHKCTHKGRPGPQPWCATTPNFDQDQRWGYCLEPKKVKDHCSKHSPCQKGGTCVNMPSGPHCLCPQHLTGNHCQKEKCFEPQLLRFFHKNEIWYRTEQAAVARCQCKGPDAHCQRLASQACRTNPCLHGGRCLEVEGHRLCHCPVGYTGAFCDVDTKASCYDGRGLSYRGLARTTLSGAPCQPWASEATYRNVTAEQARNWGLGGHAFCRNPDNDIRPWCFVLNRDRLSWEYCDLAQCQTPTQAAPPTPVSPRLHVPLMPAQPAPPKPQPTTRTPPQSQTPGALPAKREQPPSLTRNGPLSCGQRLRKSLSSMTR
Briefly: Determination of Human Factor XIIa (hFXIIa) inhibition, fluorogenic substrate IC50 assay. Format: biochemical. Conditions: fluorogenic substrate H-DPro-Phe-Arg-AFC at Km, 25° C., read-out: Human FXIIa IC50. How it is done:
Determination of Human Factor XIIa (hFXIIa) inhibition
The Km for the cleavage of the substrate by hFXIIa was determined by standard transformation of the Michaelis-Menten equation, with subsequent inhibition assays performed at substrate Km concentration.
For orientation: IC50 means the concentration that gives 50% inhibition. Consider `CCNC(=O)c1nn(-c2cccc(Cl)c2)c2c1CCN(c1cccc(N3C(=O)C[C@H]4C[C@H]43)c1)C2=O` (single isomer, unassigned) [Example 1407, 1-(3-Chlorophenyl)-N-ethyl-7-oxo-6-(3-((1R*,5R*)-3-oxo-2-azabicyclo[3.1.0]hexan-2-yl)phenyl)-4,5,6,7-tetrahydro-1H-pyrazolo[3,4-c]pyridine-3-carboxamide], for which the IC50 is 10000 to 40000 nM.

`CN1CCC(CN2CCc3c(C(=O)NCc4ccccc4)nn(-c4cccc(Cl)c4)c3C2=O)CC1` [Example 1016, N-Benzyl-1-(3-chlorophenyl)-6-((1-methylpiperidin-4-yl)methyl)-7-oxo-4,5,6,7-tetrahydro-1H-pyrazolo[3,4-c]pyridine-3-carboxamide]: the IC50 lay in the range of 10000 to 40000 nM.

As for `O=C(NCc1ccccc1)c1nn(-c2cccc(Cl)c2)c2c1CCN(c1cccc(CN3CCCC3)c1)C2=O` [Example 1017, N-benzyl-1-(3-chlorophenyl)-7-oxo-6-(3-(pyrrolidin-1-ylmethyl)phenyl)-4,5,6,7-tetrahydro-1H-pyrazolo[3,4-c]pyridine-3-carboxamide], the IC50 lay within 300 to 1000 nM.

On to `O=C(NCc1ccccc1)c1nn(-c2cccc(Cl)c2)c2c1CCN(c1cccc(CN3CCOCC3)c1)C2=O` [Example 1018, N-benzyl-1-(3-chlorophenyl)-6-(3-(morpholinomethyl)phenyl)-7-oxo-4,5,6,7-tetrahydro-1H-pyrazolo[3,4-c]pyridine-3-carboxamide], for which the IC50 is 1000 to 3000 nM.

For the compound `O=C(NCc1ccccc1)c1nn(-c2cccc(Cl)c2)c2c1CCN(c1ccc3c(c1)CN(CC1CCCC1)CC3)C2=O` [Example 1020, N-benzyl-1-(3-chlorophenyl)-6-(2-(cyclopentylmethyl)-1,2,3,4-tetrahydroisoquinolin-7-yl)-7-oxo-4,5,6,7-tetrahydro-1H-pyrazolo[3,4-c]pyridine-3-carboxamide], the IC50 fell in the range of 300 to 1000 nM.

For `CN1Cc2ccc(N3CCc4c(C(=O)NCc5ccccc5)nn(-c5cccc(Cl)c5)c4C3=O)cc2C1` [Example 1028, N-benzyl-1-(3-chlorophenyl)-6-(2-methylisoindolin-5-yl)-7-oxo-4,5,6,7-tetrahydro-1H-pyrazolo[3,4-c]pyridine-3-carboxamide], the IC50 lay within 300 to 1000 nM.

Take `NC(=O)CN1CCc2ccc(N3CCc4c(C(=O)NCC5CC5)nn(-c5cccc(Cl)c5)c4C3=O)cc2C1` [Example 1033, 6-(2-(2-amino-2-oxoethyl)-1,2,3,4-tetrahydroisoquinolin-7-yl)-1-(3-chlorophenyl)-N-(cyclopropylmethyl)-7-oxo-4,5,6,7-tetrahydro-1H-pyrazolo[3,4-c]pyridine-3-carboxamide]: the IC50 is 1000 to 3000 nM.

As for `CN1CCc2ccc(N3CCc4c(C(=O)NCC5CC5)nn(-c5cccc(Cl)c5)c4C3=O)nc2C1` [Example 1034, 1-(3-Chlorophenyl)-N-(cyclopropylmethyl)-6-(7-methyl-5,6,7,8-tetrahydro-1,7-naphthyridin-2-yl)-7-oxo-4,5,6,7-tetrahydro-1H-pyrazolo[3,4-c]pyridine-3-carboxamide], the IC50 fell in the range of 300 to 1000 nM.

Turning to `CC1CCN(Cc2cccc(N3CCc4c(C(=O)NCc5ccccc5)nn(-c5cccc(Cl)c5)c4C3=O)c2)C1` (centres unmarked) [Example 1038, N-benzyl-1-(3-chlorophenyl)-6-(3-((3-methylpyrrolidin-1-yl)methyl)phenyl)-7-oxo-4,5,6,7-tetrahydro-1H-pyrazolo[3,4-c]pyridine-3-carboxamide], the IC50 was 300 to 1000 nM.

As to `CC1CCCN1Cc1cccc(N2CCc3c(C(=O)NCc4ccccc4)nn(-c4cccc(Cl)c4)c3C2=O)c1` (centres unmarked) [Example 1039, N-benzyl-1-(3-chlorophenyl)-6-(3-((2-methylpyrrolidin-1-yl)methyl)phenyl)-7-oxo-4,5,6,7-tetrahydro-1H-pyrazolo[3,4-c]pyridine-3-carboxamide], the IC50 lay within 300 to 1000 nM.

On to `CN1CCc2ncc(N3CCc4c(C(=O)NCC5CC5)nn(-c5cccc(Cl)c5)c4C3=O)cc2C1` [Example 1040, 1-(3-Chlorophenyl)-N-(cyclopropylmethyl)-6-(6-methyl-5,6,7,8-tetrahydro-1,6-naphthyridin-3-yl)-7-oxo-4,5,6,7-tetrahydro-1H-pyrazolo[3,4-c]pyridine-3-carboxamide], for which the IC50 lay in the range of 1000 to 3000 nM.

In the case of `CN1CCc2ccc(N3CCc4c(C(=O)NC5COC5)nn(-c5cccc(Cl)c5)c4C3=O)cc2C1` [Example 1041, 1-(3-chlorophenyl)-6-(2-methyl-1,2,3,4-tetrahydroisoquinolin-7-yl)-N-(oxetan-3-yl)-7-oxo-4,5,6,7-tetrahydro-1H-pyrazolo[3,4-c]pyridine-3-carboxamide], the IC50 fell in the range of 300 to 1000 nM.

`CN1CCc2ccc(N3CCc4c(C(=O)NC5CCOC5)nn(-c5cccc(Cl)c5)c4C3=O)cc2C1` (centres unmarked) [Example 1042, 1-(3-chlorophenyl)-6-(2-methyl-1,2,3,4-tetrahydroisoquinolin-7-yl)-7-oxo-N-(tetrahydrofuran-3-yl)-4,5,6,7-tetrahydro-1H-pyrazolo[3,4-c]pyridine-3-carboxamide]: the IC50 lay within 300 to 1000 nM.

Consider `CN1CCc2ccc(N3CCc4c(C(=O)NCC5CCO5)nn(-c5cccc(Cl)c5)c4C3=O)cc2C1` (centres unmarked) [Example 1045, 1-(3-chlorophenyl)-6-(2-methyl-1,2,3,4-tetrahydroisoquinolin-7-yl)-N-(oxetan-2-ylmethyl)-7-oxo-4,5,6,7-tetrahydro-1H-pyrazolo[3,4-c]pyridine-3-carboxamide], for which the IC50 is 300 to 1000 nM.

With `CN1CCc2ccc(N3CCc4c(C(=O)NCC56CC(CO)(CCO5)C6)nn(-c5cccc(Cl)c5)c4C3=O)cc2C1` [Example 1046, 1-(3-chlorophenyl)-N-((5-(hydroxymethyl)-2-oxabicyclo[3.1.1]heptan-1-yl)methyl)-6-(2-methyl-1,2,3,4-tetrahydroisoquinolin-7-yl)-7-oxo-4,5,6,7-tetrahydro-1H-pyrazolo[3,4-c]pyridine-3-carboxamide], the IC50 lay in the range of 300 to 1000 nM.

Regarding `CN1CCc2ccc(N3CCc4c(C(=O)NCC5COC5)nn(-c5cccc(Cl)c5)c4C3=O)cc2C1` [Example 1047, 1-(3-chlorophenyl)-6-(2-methyl-1,2,3,4-tetrahydroisoquinolin-7-yl)-N-(oxetan-3-ylmethyl)-7-oxo-4,5,6,7-tetrahydro-1H-pyrazolo[3,4-c]pyridine-3-carboxamide], the IC50 was 300 to 1000 nM.

For `Cc1cc(N2CCc3c(C(=O)NCC4CC4)nn(-c4cccc(Cl)c4)c3C2=O)cc2c1CCN(C)C2` [Example 1048, 1-(3-Chlorophenyl)-N-(cyclopropylmethyl)-6-(2,5-dimethyl-1,2,3,4-tetrahydroisoquinolin-7-yl)-7-oxo-4,5,6,7-tetrahydro-1H-pyrazolo[3,4-c]pyridine-3-carboxamide], the IC50 lay in the range of 300 to 1000 nM.

Regarding `CN1CCc2ccc(N3CCc4c(C(=O)NCC5(CO)CCC5)nn(-c5cccc(Cl)c5)c4C3=O)cc2C1` [Example 1049, 1-(3-chlorophenyl)-N-((1-(hydroxymethyl)cyclobutyl)methyl)-6-(2-methyl-1,2,3,4-tetrahydroisoquinolin-7-yl)-7-oxo-4,5,6,7-tetrahydro-1H-pyrazolo[3,4-c]pyridine-3-carboxamide], the IC50 is 100 to 300 nM.

On to `CN1CCc2ccc(N3CCc4c(C(=O)NCC56COC(CO)(C5)C6)nn(-c5cccc(Cl)c5)c4C3=O)cc2C1` [Example 1050, 1-(3-chlorophenyl)-N-((1-(hydroxymethyl)-2-oxabicyclo[2.1.1]hexan-4-yl)methyl)-6-(2-methyl-1,2,3,4-tetrahydroisoquinolin-7-yl)-7-oxo-4,5,6,7-tetrahydro-1H-pyrazolo[3,4-c]pyridine-3-carboxamide], for which the IC50 is 300 to 1000 nM.

For `CCCN1CCc2ccc(N3CCc4c(C(=O)NCC5CC5)nn(-c5cccc(Cl)c5)c4C3=O)cc2C1` [Example 1052, 1-(3-chlorophenyl)-N-(cyclopropylmethyl)-7-oxo-6-(2-propyl-1,2,3,4-tetrahydroisoquinolin-7-yl)-4,5,6,7-tetrahydro-1H-pyrazolo[3,4-c]pyridine-3-carboxamide], the IC50 was 100 to 300 nM.

On to `COCCCN1CCc2ccc(N3CCc4c(C(=O)NCC5CC5)nn(-c5cccc(Cl)c5)c4C3=O)cc2C1` [Example 1053, 1-(3-chlorophenyl)-N-(cyclopropylmethyl)-6-(2-(3-methoxypropyl)-1,2,3,4-tetrahydroisoquinolin-7-yl)-7-oxo-4,5,6,7-tetrahydro-1H-pyrazolo[3,4-c]pyridine-3-carboxamide], for which the IC50 was in the range of 100 to 300 nM.

For the compound `CCN1CCc2cc(C)c(N3CCc4c(C(=O)NCC5CC5)nn(-c5cccc(Cl)c5)c4C3=O)cc2C1` [Example 1054, 1-(3-Chlorophenyl)-N-(cyclopropylmethyl)-6-(2-ethyl-6-methyl-1,2,3,4-tetrahydroisoquinolin-7-yl)-7-oxo-4,5,6,7-tetrahydro-1H-pyrazolo[3,4-c]pyridine-3-carboxamide], the IC50 was in the range of 100 to 300 nM.

Regarding `CCN1CCc2cnc(N3CCc4c(C(=O)NCC5CC5)nn(-c5cccc(Cl)c5)c4C3=O)nc2C1` [Example 1056, 1-(3-Chlorophenyl)-N-(cyclopropylmethyl)-6-(7-ethyl-5,6,7,8-tetrahydropyrido[3,4-d]pyrimidin-2-yl)-7], the IC50 fell in the range of 300 to 1000 nM.
